{
  "source": "patent US8895504B2",
  "about": "“Amylin derivatives” (priority 2008, dated 2014)",
  "key": {"[1]": {"molecular_target": "T1, Amylin 3(a) receptor (human calcitonin receptor (CTa) and RAMP-3) (Homo sapiens, UniProt O60896+P30988)", "T1 construct": "expressed in transfected cells; host or cells: BHK570 cells, stably transfected with a CRE-luciferase reporter", "T1 sequence (O60896 24-148)": "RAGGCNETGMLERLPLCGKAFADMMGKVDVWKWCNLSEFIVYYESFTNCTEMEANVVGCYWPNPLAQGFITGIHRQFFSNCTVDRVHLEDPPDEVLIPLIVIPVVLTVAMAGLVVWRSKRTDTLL", "T1 sequence (P30988 25-474)": "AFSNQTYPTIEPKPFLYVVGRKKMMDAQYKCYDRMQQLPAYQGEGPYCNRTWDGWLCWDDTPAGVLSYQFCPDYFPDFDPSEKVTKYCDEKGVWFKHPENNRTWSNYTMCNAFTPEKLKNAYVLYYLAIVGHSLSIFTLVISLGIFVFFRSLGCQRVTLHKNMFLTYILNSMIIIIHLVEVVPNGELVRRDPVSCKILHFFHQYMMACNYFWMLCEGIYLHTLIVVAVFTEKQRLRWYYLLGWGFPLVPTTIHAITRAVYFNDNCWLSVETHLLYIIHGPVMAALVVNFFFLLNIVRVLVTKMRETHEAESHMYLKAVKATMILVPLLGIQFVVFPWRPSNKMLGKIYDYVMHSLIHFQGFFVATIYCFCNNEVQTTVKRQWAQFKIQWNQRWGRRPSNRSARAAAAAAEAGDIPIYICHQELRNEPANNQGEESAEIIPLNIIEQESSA", "assay": "Luciferase assay (III), BHK Amylin 3(a)//CRE-luc cells", "format": "cell-based", "conditions": "BHK cells with Amylin 3(a) receptor and CRE luciferase reporter, 4 hours incubation; read-out: Potency Luciferase", "outline": "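Read-out is CRE-driven luciferase luminescence, taken 30 min after LucLite addition at room temperature. Compounds were incubated 4 h at 37° C in assay medium (10% FBS, 10 mM Hepes, pH 7,4). The cell line is BHK570 co-transfected with human calcitonin receptor CTa and RAMP-3, seeded overnight before use.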"}, "[2]": {"assay": "Assay (VI) PK - determination of T½ in rat", "format": "in vivo", "conditions": "sc, terminal plasma half-life, subcutaneous, approx 20 nmol/kg, male Sprague Dawley rats", "description": "Assay (VI) PK—Determination OF T½ in Rat\nT½ is the terminal half-life=ln 2/λz of a compound in plasma. λz is the first order rate constant associated with the terminal (log-linear) portion of the plasma concentration-time curve and is estimated by linear regression of time vs. log concentration.\nT½ values of the amylin analogues of the invention is determined by pharmacokinetic studies in Sprague Dawley male rats, from Taconic Europe and the principles of laboratory animal care are followed.\nAn acclimatization period of approximately 7 days was allowed before the animals entered the study. At start of the acclimatization period the rats were in the weight range of 300-400 g. The rats had permanent catheters inserted in a. carotis which were used for blood sampling.\nThe studies were conducted in an animal room which was illuminated to give a cycle of approx 12 hours light and 12 hours darkness. The animals were housed individually due to the catheters and had food and water ad lib. The animals were weighed on the days of dosing.\nIn the present studies the test substances were administered subcutaneously in approx 20 nmol/kg dose. The animals received a single subcutaneous injection to the neck using a 25 G needle with syringe. Each test substance was given to typically three but in some cases two or four animals.\nA full plasma concentration-time profile, employing 8-10 sampling points, was obtained from each animal. In example blood samples were collected according to the following schedule:\nAfter subcutaneous administration:\nPredose (0), 0.5, 1, 1.5, 2, 4, 6, 12, 24, 48 and 72 hours after injection. At each sampling time, 0.08 to 0.10 ml of blood was drawn from each animal. The blood samples were taken via the catheter.\nThe blood samples were collected into EDTA test tubes. Blood samples were kept on ice for max 20 min. before centrifugation. Plasma was separated using centrifugation (i.e. at 4° C., 10 min., 1500 G) and was immediately transferred to Micronic tubes or PCR plates. Approximately 40 μl plasma was transferred and was stored at −20° C. until assayed. The plasma samples were assayed for the content of amylin using an ELISA assay.\nThe plasma concentration-time profiles were analysed by a non-compartmental pharmacokinetic analysis (NCA) using WinNonlin Professional 5.0 (Pharsight Inc., Mountain View, Calif., USA). NCA was performed using the individual plasma concentration-time profiles from each animal. T½ is the terminal half-life=ln 2/λz and was determined from λz, the first order rate constant associated with the terminal (log-linear) portion of the curve, estimated by linear regression of time vs. log concentration.\nELISA Plasma Assay for Amylin Quantification\nThe human amylin ELISA is a monoclonal antibody-based sandwich immunoassay for determining amylin levels in human plasma. The capture antibody recognizes human amylin, amylin acid (deamidated amylin), a 1-20 fragment of amylin, but not reduced amylin. The detection antibody binds to reduced or unreduced human amylin but not amylin acid and is complexed with streptavidin-alkaline phosphatase. The substrate, 4-methylumbelliferyl phosphate, is applied to the completed sandwich and the fluorescent signal, monitored at 355 nm/460 nm, is proportional to the amount of amylin present in the sample."}},
  "note": "*1 amine or outer side, *2 acyl side, *3 side chain or, on linkers, in order; H or OH if unused. Where a SMILES comes first, the peptide text is derived from it. Bridges are numbered along the chain shown (N, C = ends). The star is where a group is joined. C20 diacid = O=C(O)CCCCCCCCCCCCCCCCCCC(=O)*; γGlu = O=C(O)[C@H](CCC(=O)[*:2])N[*:1]",
  "data": [
    {"smiles": "CC[C@H](C)[C@H](NC(=O)[C@@H]1CCCN1C(=O)CNC(=O)[C@H](Cc1ccccc1)NC(=O)[C@H](CC(N)=O)NC(=O)[C@H](CC(N)=O)NC(=O)[C@H](CO)NC(=O)[C@H](CO)NC(=O)[C@H](Cc1c[nH]cn1)NC(=O)[C@H](Cc1c[nH]cn1)NC(=O)[C@H](CC(C)C)NC(=O)[C@H](Cc1ccccc1)NC(=O)[C@H](CC(N)=O)NC(=O)[C@H](C)NC(=O)[C@H](CC(C)C)NC(=O)[C@H](CCCNC(=N)N)NC(=O)[C@H](CCC(N)=O)NC(=O)[C@@H](NC(=O)[C@H](C)NC(=O)[C@@H]1CSSC[C@H](NC(=O)[C@H](Cc2c[nH]cn2)NC(=O)[C@H](Cc2c[nH]cn2)NC(=O)[C@H](Cc2c[nH]cn2)NC(=O)CC[C@H](NC(=O)CCCCCCCCCCCCCCCCCCC(=O)O)C(=O)O)C(=O)N[C@@H](CC(N)=O)C(=O)N[C@@H]([C@@H](C)O)C(=O)N[C@@H](C)C(=O)N[C@@H]([C@@H](C)O)C(=O)N1)[C@@H](C)O)C(=O)N[C@@H](CC(C)C)C(=O)N1CCC[C@H]1C(=O)N1CCC[C@H]1C(=O)N[C@H](C(=O)N[C@@H](CC(N)=O)C(=O)N[C@H](C(=O)NCC(=O)N[C@@H](CO)C(=O)N[C@@H](CC(N)=O)C(=O)N[C@H](C(=O)N[C@@H](Cc1ccc(O)cc1)C(N)=O)[C@@H](C)O)C(C)C)[C@@H](C)O", "note": "[Example 39, N-alpha-[(S)-4-Carboxy-4-(19-carboxynonadecanoylamino)butyryl]-His-His-[His1,His17]-pramlintide] ({C20 diacid-γGlu}-HHHCNTATCATQRLANFLHHSSNNFGPILPPTNVGSNTY-NH2; disulfide 4-9)", "values": [
      {"measurement": "EC50", "setting": "[1]", "value": 0.06, "unit": "nM"},
      {"measurement": "half-life", "setting": "[2]", "value": 840, "unit": "min"}
    ]}
  ]
}
